Tests used:
[1] = test system: primary cultured cells of myotubes; assay: Cytotoxicity of reagent in myotube culture; type: cell-based; settings: high concentration
[2] = test system: primary cultured cells of myotubes derived from the DMRV model mice; assay: Amount of NeuAc by HPLC in myotubes from DMRV model mice; type: cell-based; settings: 10 mM ManNAc, three days; compared with control group (10 mM Glc)
Description: The skeletal muscle tissues collected from the DMRV human patients or the model mice were lightly washed with PBS or Hank's balanced saline and were treated with 0.25% trypsin for 5 minutes. The tissues were finely cut into several millimeters with ophthalmic scissors, were digested with 0.4% collagenase II/0.25% trypsin at 37° C. for 30 minutes, and were left still to collect supernatant. The precipitate was again treated with the enzyme liquid. After being left still, the precipitate was well suspended in a DMEM-Ham's F-12 culture medium. The tissue suspension was passed through a nylon mesh to remove the tissues. The washings and the supernatant were centrifuged to collect cells. […]
In the case that the sample was cultured cells, the cells were washed with PBS three times, and 400 p. […] The fluorescent derivative thus prepared was analyzed with HPLC (JASCO Corp.) using 0.05 to 5 nmol/μl Neu5Ac and Neu5Gc standards. The amount of protein from the tissue was measured with a Bio-Rad Protein Assay kit (Bio-Rad Laboratories).
ManNAc or Ac5GlcNAcol was added to the culture media of primary cultured cells of myotubes derived from the DMRV model mice such that the final concentration of ManNAc was 10 mM and the final concentration of Ac5GlcNAcol was […]. […] The amount of NeuAc in the cultured cells was measured by the HPLC method described above (N=3).

[3] = test system: cells of animals having GNE gene mutation and normal animals; settings: cited from earlier work

For CC(=O)N[C@@H]1C(OC(C)=O)O[C@H](COC(C)=O)[C@@H](OC(C)=O)[C@@H]1OC(C)=O (stereo partly drawn) [Ac4ManNAc, Tetra-O-acetyl-N-acetylmannosamine], the cytotoxicity [1] was “has cytotoxicity when the Ac4ManNAc concentration is high”.

With CC(=O)N[C@@H]1C(O)O[C@H](CO)[C@@H](O)[C@@H]1O (stereo partly drawn) [ManNAc, N-acetylmannosamine, reference compound] the “amount of NeuAc in the myotubes” value [2] was “increased the amount of NeuAc”.

In the case of CC(=O)N[C@H]1[C@H]([C@H](O)[C@H](O)CO)OC(O)(C(=O)O)C[C@@H]1O (stereo partly drawn) [NeuAc, N-acetylneuraminic acid], the incorporation into cells [3] is listed as “difficult to incorporate into cells”.

— US20120264928A1, “THERAPEUTIC PHARMACEUTICAL AGENT FOR DISEASES ASSOCIATED WITH DECREASE IN FUNCTION OF GNE PROTEIN, FOOD COMPOSITION, AND FOOD ADDITIVE” (JAPAN HEALTH SCIENCES FOUNDATION, priority 2009, published 2012)
